Like-named read-outs stand apart in the source and are kept apart here.
Tests used:
[1] = Stability in simulated gastric juice (NaCl solution with pepsin, pH~1.2), HPLC; format: physicochemical; details: 30 min, 37° C., column head pH = 1, cells note pH = 1.2 (gastric juice)
Protocol: (§1) The quantification took place through HPLC (HPLC column: Xterra MS C18 2.5 μm 4.6×30 mm). Based on the test substances to be measured, the following gradient system was used for the HPLC: • Acidic gradient: A: water/0.01% trifluoroacetic acid, B: acetonitrile/0.01% trifluoroacetic acid—0 min 5% B, 0-3 min 65% B, 3-5 min 65% B, 5-6 min 5% B • Alkaline gradient: A: water/0.025% ammonia, B: acetonitrile/0.025% ammonia—0 min 20% B, 0-3 min 80% B, 3-5 min 80% B, 5-6 min 20% B. The quantification took place after 1 and 2 hours and after 24 hours. Stability in Simulated Gastric Juice:
Solutions of the compounds according to the invention were incubated at 37° C. in simulated gastric juice (aqueous NaCl solution with pepsin, pH˜1.2).
The quantification took place through HPLC (HPLC-column: Xterra MS C18 2.5 μm 4.6×30 mm) using the gradient system: […]
A: water/0.01% trifluoroacetic acid, B: acetonitrile/0.01% trifluoroacetic acid—0 min 5% B, 0-3 min 65% B, 3-5 min 65% B, 5-6 min 5% B.
The quantification took place after 0.5, 1, 1.5 and 2 hours.

[2] = target: human carbonic anhydrase II (Homo sapiens, UniProt P00918); test: Carbonic anhydrase inhibition, photometric, nitrophenyl acetate conversion (CA II); format: biochemical
Source text: (§2) Photometric determination of the inhibition of human carbonic anhydrase I or II with sulfonamides or sulfamates on microtiter plates with the aid of enzymatic conversion of nitrophenyl acetate with a color change from colorless to yellow.

[3] = Solubility in water (kinetic nephelometry / thermodynamic HPLC); format: physicochemical; details: for solubility: 25 °C, aqueous buffer
Protocol: The compounds according to the invention were measured as 10 mmol DMSO solution in a 0.01 M phosphate buffer solution at pH 7.4 and 25° C. with nephelometry and turbidity.
While in a turbid state, the solution to be tested was added drop by drop to the buffer solution until a precipitate settled.
The precipitate was detected in a dilution series (compounds in a phosphate buffer solution according to the invention) by nephelometry.
b.) Thermodynamic Measurement:
The compounds in solid form according to the invention were added to an excess of an aqueous buffer system of various pH values. It was stirred 24 hours at 25° C. After centrifuging, the solution was examined with HPLC (HPLC: column: Xterra MS C18 2.5 μm, 30×4.6 mm).

[4] = Hydrolysis in aqueous buffer of various pH values at 37° C., HPLC; format: physicochemical
Protocol: The compounds according to the invention were measured as a DMSO solution in an aqueous buffer of various pH values at 37° C.
as §1, with “hours.” for “hours. Stability in Simulated Gastric Juice:”

[5] = target: human carbonic anhydrase I (Homo sapiens, UniProt P00915); test: Carbonic anhydrase inhibition, photometric, nitrophenyl acetate conversion (CA I); format: biochemical
Source text: as §2

[6] = human carbonic anhydrase II, read-out: CA II IC50
[7] = human carbonic anhydrase I, read-out: CA I IC50

human carbonic anhydrase I, sequence (P00915 whole entry): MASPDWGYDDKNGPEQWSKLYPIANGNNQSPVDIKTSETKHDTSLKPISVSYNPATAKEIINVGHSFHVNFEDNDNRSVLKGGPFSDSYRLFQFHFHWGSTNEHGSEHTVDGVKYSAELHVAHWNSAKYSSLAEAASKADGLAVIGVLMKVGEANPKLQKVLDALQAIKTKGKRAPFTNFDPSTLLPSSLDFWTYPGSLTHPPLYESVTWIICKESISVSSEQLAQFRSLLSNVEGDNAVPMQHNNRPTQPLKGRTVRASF

Compound	Decomposition in % [1]	IC50 [2, 6]	solubility [3]	Decomposition in % ([4]; pH = 1, 37° C., 1 h)	Decomposition in % ([4]; pH = 1, 37° C., 2 h)	Decomposition in % ([4]; pH = 1, 37° C., 24 h)	Decomposition in % ([4]; pH = 7.4, 37° C., 1 h)	Decomposition in % ([4]; pH = 7.4, 37° C., 2 h)	Decomposition in % ([4]; pH = 7.4, 37° C., 24 h)	IC50 [5, 7]	IC50 [2]	IC50 [5]	Solubility in Water [3]	Solubility in Water (in words) [3]
C[C@]12CC[C@@H]3c4ccc(O)cc4CC[C@H]3[C@@H]1CC[C@@H]2OS(=O)(=O)c1cccc(S(N)(=O)=O)c1 [3-Hydroxyestra-1,3,5(10)-trien-17β-yl 3′-sulfamoylphenyl Sulfonate]	4%	81 nM	3 µg/mL	7%	14%	80%	6%	13%	84%	1700 nM	–	–	–	–
C[C@]12CC[C@H]3[C@@H](CCC4=CC(=O)CC[C@@]43C)[C@@H]1CC[C@@H]2OS(=O)(=O)c1cccc(S(N)(=O)=O)c1 [3-Oxo-androst-4-en-17β-yl 3′-sulfamoylphenyl Sulfonate]	3%	–	5 µg/mL	6%	11%	78%	6%	12%	75%	–	120 nM	2300 nM	–	–
C[C@@H]1CC2=CC(=O)CC[C@]2(C)[C@H]2CC[C@]3(C)[C@@H](OS(=O)(=O)c4cccc(S(N)(=O)=O)c4)CC[C@H]3[C@H]12 [3-oxo-7α-methylandrost-4-en-17β-yl 3′-sulfamoylphenyl sulfonate]	–	120 nM	–	6%	11%	71%	6%	11%	70%	2300 nM	–	–	About 6 mg/l	–
C[C@]12CC[C@@H]3c4ccc(OS(N)(=O)=O)cc4CC[C@H]3[C@@H]1CC[C@@H]2O [Estradiol-3-sulfamat, Estradiol-3-sulfamate, reference compound]	–	34 nM	–	–	–	–	–	–	–	157 ± 10.6 nM	–	–	–	–
CCC(=O)O[C@H]1CC[C@H]2[C@@H]3CCC4=CC(=O)CC[C@]4(C)[C@H]3CC[C@]12C [Testosterone Propionate, 3-Oxoandrost-4-en-17β-yl n-propionate, reference compound]	0%	–	–	0%	0%	0%	0%	0%	0%	–	–	–	–	insoluble
Zidovudine-sulfamoylphenyl Sulfonate [Zidovudinsulfonat]	–	1100 nM	–	–	–	–	–	–	–	2900 nM	–	–	–	–

Source: patent publication US20070135375A1, “Sulfamoyl sulfonate prodrugs” (priority 2005, published 2007)
